Where two headings read alike, the source gives them in different places.
Tests used:
[1] = tested on: murine endothelial cells exposed to Gamma-Interferon and TNF (nitric oxide production); experiment: Inhibition of nitrite production by MBEC exposed to IFN (100 U/ml) and TNF (500 U/ml); assay type: cell-based; details: for IC50: Mus musculus, Endothelial cell, 48 h, read-out: ED50% (effective dose that inhibited 50% of the nitrite production); for potency ranking as inhibitor of nitric oxide production: analogs of Table 5
Method: Endothelial cells--MBEC's were isolated from murine brain microvessels and cultured on gelatin-coated tissue culture dishes in DME/F12 media supplemented with 2% PPPHS, 5% FBS (Hyolone), 50 μg/ml ECGF (Biomed Tech), and 10 U/ml heparin (Sigma) as previously described (Belloni et al. 1989). The endothelial derivation of MBEC's was determined by the presence of a non-thrombogenic surface to platelets and immunofluorescent staining for Factor VIII related antigen. MBEC's were used between passage 6-9 for all experiments.
Nitrite Assay--MBE cells were cultured on gelatin-coated well plates (Corning) in 100 μl of culture medium and treated with cytokines at 3 days post-confluence. After 48 hours, nitrite production was determined by a colorimetric assay. […] All treatments were performed in triplicate and data presented as the mean value±standard deviation. […]
production by murine endothelial cells exposed to GammaInterferon (100
U/ml) and TNF (500 U/ml) in vitro.

[2] = tested on: mongrel dogs with TNF-induced hypotension; experiment: TNF-induced hypotension in anesthetized dogs; assay type: in vivo, dog; details: dog, FIG. 25
Method: Recombinant human TNF specific activity 2×10^7 units/mg, was from the Niposn Chemical Corporation, Tokyo, Japan. TNF was administered at a dose of 10 mcg/kg in a volume of 10 ml of phosphate buffered saline containing 2 mgs/ml of dog albumin. […] Arginine was obtained from Sigma Chemical Company, St. Louis, Mo.
Four conditioned mongrel dogs, 2 males and 2 females, weighing 28 to 30 kgs, were studied. Care of the animals were in accordance with the recommendation of the American Association for Accreditation of Laboratory Animals [DHEW(DHHS) publication no. (NIH) 78-23, revised, 1978]. On the day of the experiment, the dogs were fasted overnight. They were anesthetized with phenobarbital (10 mg/kg). They were then intubated orally with a #10 fr. endotracheal tube and ventilated with a Harvard pump ventilator at a rate of 12 breaths per minute and a tidal volume of 15 ml/kg. An arterial line was percutaneously placed in the femoral artery on the day of the experiment.
Mean (electronic) and phasic systemic arterial pressures (SAP) were continuously recorded on a Hewlett-Packard recording system (model 7758B) using strain gauge manometers (Hewlett-Packard model 1290A) which were connected to the arterial line. Heart rate (HR) was determined from an EKG tracing and continuously recorded on the Hewlett-Packard recording system. Oxyhemoglobin saturation (SaO2) was obtained using a pulse oximeter (BIOX 111, Boulder, Colo.). continuous time-series records of SAP, HR, and SaO2 were obtained using a Lab Master analog-to-digital convertor (16 channel, 12 bit, 30 kHz; Scientific Solutions, Inc.) sampling at 55 Hz and storing the 6 sec averages on a magnetic disk.

[3] = tested on: guinea pig pulmonary artery rings; experiment: Relaxation of preconstricted guinea pig pulmonary artery rings; details: for inhibition of EDRF/NO synthesis: guinea pig pulmonary artery rings, 1 μM NE, ACh
L929 cells = experiment: Cytolytic activity of rh-TNF against Actinomycin D-treated L929 cells; assay type: cell-based, murine; details: murine L929 cells, in vitro
Method: TNF bioactivity was measured by the cytotoxicity towards murine L929 cells, in vitro.

lethal ET shock animal = experiment: Reversal of lethal-dose endotoxin shock by N^G-aminoarginine; assay type: in vivo
Method: The reversal of ET shock (lethal dose) by N^G -aminoarginine (NAA) for 4 hrs. […] FIG. 26 depicts systemic arterial pressure (SAP) versus time (min). ET (2 mg/kg), a lethal dose, was infused over 60 min. and NAA administered at 97, 165, and 374 min. to maintain blood pressure. The animal was survived for 24 hours and then autopsied.

[4] = tested on: systemic hypotension mediated by interleukin-1; experiment: Interleukin-1 mediated systemic hypotension; assay type: in vivo; details: FIG. 27
anesthetized guinea pig = experiment: Pressor effect in the anesthetized guinea pig; assay type: in vivo; details: 1-10 mg/kg i.v. (L-NMA)
Text: Points are mean changes in diastolic arterial pressure (±SEM; n=4-5). Control systolic and diastolic BP was 75±3 and 51±3 mm Hg, respectively.

[5] = biological target: EMT6 enzyme system (NO formation from L-arginine) (Mus musculus, UniProt P29477); experiment: Arginine-dependent nitrite synthesis by cytosol of stimulated EMT6 cells; assay type: biochemical, murine
Chain of EMT6 enzyme system (NO formation from L-arginine) (P29477 whole entry): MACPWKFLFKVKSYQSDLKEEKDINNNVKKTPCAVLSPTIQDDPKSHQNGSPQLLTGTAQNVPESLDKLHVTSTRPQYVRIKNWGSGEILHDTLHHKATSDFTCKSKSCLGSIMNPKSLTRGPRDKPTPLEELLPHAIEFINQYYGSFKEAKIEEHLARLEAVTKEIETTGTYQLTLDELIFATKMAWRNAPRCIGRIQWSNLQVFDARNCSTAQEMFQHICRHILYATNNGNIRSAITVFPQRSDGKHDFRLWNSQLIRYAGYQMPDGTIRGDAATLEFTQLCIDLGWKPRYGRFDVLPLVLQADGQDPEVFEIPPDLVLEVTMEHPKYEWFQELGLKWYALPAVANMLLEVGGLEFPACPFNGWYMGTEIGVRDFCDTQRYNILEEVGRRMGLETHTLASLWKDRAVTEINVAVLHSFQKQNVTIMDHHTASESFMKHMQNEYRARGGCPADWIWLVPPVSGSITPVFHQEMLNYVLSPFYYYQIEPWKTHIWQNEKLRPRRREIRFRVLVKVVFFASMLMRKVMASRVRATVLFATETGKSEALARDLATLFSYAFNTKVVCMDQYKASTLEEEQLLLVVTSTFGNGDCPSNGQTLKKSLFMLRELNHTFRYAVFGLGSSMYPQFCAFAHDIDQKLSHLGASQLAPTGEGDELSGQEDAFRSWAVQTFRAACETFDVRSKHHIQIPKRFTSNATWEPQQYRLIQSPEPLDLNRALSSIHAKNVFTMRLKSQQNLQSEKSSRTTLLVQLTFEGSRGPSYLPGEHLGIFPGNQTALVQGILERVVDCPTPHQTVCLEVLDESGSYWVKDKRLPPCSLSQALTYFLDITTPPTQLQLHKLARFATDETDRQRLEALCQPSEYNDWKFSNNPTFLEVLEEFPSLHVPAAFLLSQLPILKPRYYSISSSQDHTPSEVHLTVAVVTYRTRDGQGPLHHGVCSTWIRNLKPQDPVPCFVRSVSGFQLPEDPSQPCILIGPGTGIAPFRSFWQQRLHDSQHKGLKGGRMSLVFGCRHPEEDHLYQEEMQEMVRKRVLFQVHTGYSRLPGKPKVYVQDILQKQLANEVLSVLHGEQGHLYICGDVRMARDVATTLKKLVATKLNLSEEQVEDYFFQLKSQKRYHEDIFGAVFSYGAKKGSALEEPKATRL
Method: Thus EMT6 cytosolic preparations (i.e., cell-free solutions) were prepared and an enzyme activity was characterized which forms NO and citrulline from arginine. This reaction requires NADPH (FIG. 18 and 19) and other cofactors.
Incubation mixtures were 100 μl total volume containing: 40 μl cytosol (100,000×g supernatant), 2 mM L-arginine, 2 mM NADPH, 20 mM TRIS (pH 8.0) and a "cocktail" of protease inhibitors.
From kinetic studies an apparent Michaelis-Menton constant for L-arginine utilization by the enzyme was deduced. FIG. 20 is a Lineweaver-Burke plot for synthesis of nitrite from L-arginine by cytosol from stimulated EMT6 cells. The rate of nitrite formation was evaluated over a range of L-arginine (ARG) concentrations (from 0.03-2.0 mM) under conditions similar to that described for FIG. 18, except that incubates contained 50 μl cytosol in a total volume of 80 μl. Open and filled circles represent results obtained with each of two cytosol preparations. […] N^G -substituted arginine analogs were screened for precise quantitation of their ability to inhibit arginine-dependent NO formation by the EMT6 enzyme system.

rabbit aortic rings = experiment: ACh-induced relaxation of isolated rabbit aortic rings; details: isolated rabbit aortic rings, FIG. 9b
Text: FIG. 9b compares concentration-response relationships for the same set of mono- and disubstituted arginine analogs as FIG. 9a, plus an additional dimethyl analog with the two methyl groups on different guanidino nitrogens. The test is for inhibition of ACh-induced vasorelaxation in isolated rabbit aortic rings. The points plotted represent means±S.E. of the maximum responses to ACh observed in the presence of the indicated concentrations of analogs (n=4).
Guinea pig pulmonary artery (GP PA), rat and rabbit aorta (Ao), and dog coronary (CA) and femoral artery (FA) were precontracted with NE (1 μM) and relaxed with a single concentration of ACh. Concentration of ACh: GP PA 1 μM, rat Ao […], rabbit Ao 0.3, dog CA […] and […] 0.1 μM. […] The concentrations of L-citrulline (L-cit), D-arginine (D-arg) and L-arginine (L-arg) were all 0.5 mM. Bars are mean values±SEM (n=4-6).
FIG. 11 contains representative physiograph tracings which depict ACh-induced relaxation of NE-preconstricted rings prepared from rabbit aorta (upper panel) and human internal mammary artery (lower panel).

[6] = tested on: bovine aortic endothelial cells (BAEC); experiment: A23187-stimulated nitrite release from bovine aortic endothelial cells; assay type: cell-based; details: 2-hr, L-arginine-free medium, FIG. 9a
Method: The % inhibition of relaxation is calculated from the maximum ACh-induced relaxation observed in the presence of the arginine analog relative to that in its absence. Points represent mean values±SEM (n=4-6). […] Another N^G substitution tested for inhibition of induced nitrite release had two methyl groups on one of the arginine guanidino nitrogens. Concentration-response relationships for inhibition of A23187-stimulated nitrite release by bovine aortic endothelial cells (BAEC) are shown in FIG. 9a for the N,N-disubstituted derivative in comparison with several monosubstituted derivatives. Nitrite production was measured as an indication of nitric oxide synthesis since nitric oxide spontaneously decays to nitrite. Nitrite production by BAEC in a 2-hr. period was assessed in an L-arginine-free medium alone or in the presence of the indicated concentration of arginine analogs. The points plotted represent means±S.E. of the percent inhibition of nitrite production observed in 3 individual BAEC culture wells. The key on FIG. 9a indicates the groups substituted on the guanidino nitrogens of L-arginine.
Points are mean values±SEM (n=3).

[7] = tested on: nitroglycerin-treated dogs; experiment: Nitroglycerin-induced hypotension in dogs (Example 4); assay type: in vivo, dog; details: Table 1, Study 2: Nitroglycerin-treated (n = 3)
Method: Animals: Studies were carried out on 12 conditioned mongrel dogs (9 males and 3 females) weighing 22-32 kg (avg=25.3 kg). Animal care was in accordance with the recommendations of the American Association for Accreditation of Laboratory Animal Care, and met all standards prescribed by the Guide for the Care and Use of Laboratory Animals (Guide for the Care and Use of Laboratory Animals (1978) Dept. of Health, Education and Welfare, Washington, D.C. (Publ. No. 78-23). Animal protocols were approved by The University of Texas Animal Welfare Committee. The dogs were fasted overnight prior to the day of experimentation. They were anesthetized with sodium pentobarbital (25 mg/kg I.v.). Dogs were then endotracheally intubated and ventilated with a piston-driven respirator (Harvard instruments) using room air at a tidal volume of 20 ml/kg and at a rate of 10 to 12 breaths per minute, adjusted to achieve a normal arterial pH and pCO2 (Instrumentation Laboratories 1L13012 pH/Blood Gas Analyzer). Catheters were placed percutaneously into the femoral and pulmonary arteries; In the latter, a flow-directed thermal-dilation catheter was used (Abbott Critical Care Systems).
Physiologic measurements: Mean SAP and heart rate were continuously monitored (Parametron 7048 Monitoring System, Roche) and stored on a magnetic disk using an analog-to-digital converter (Scientific Solutions, Inc.). Cardiac output (CO) was determined as the mean of six measurements by thermal-dilution. Systemic vascular resistance was calculated as (SAP X80)/CO and expressed as […].
Protocol: After the blood pressure and heart rate stabilized, endotoxin (40 ug/kg, in 10 ml of phosphate-buffered saline (PBS), pH 7.4) was infused i.v. over 2 minutes. This dose of endotoxin typically induces severe and often lethal cardiovascular collapse in the dog. Blood pressure was monitored, and when either SAP fell below 60 mmHg or a stable nadir in systemic arterial pressure (SAP) was maintained for 10 minutes, L-NMA was administered (20 mg/kg in 5 ml of PBS i.v. over 1 min.). In most experiments, L-arginine (400 mg/kg in 20 mi PBS) was administered ten minutes later by i.v. infusion over 2 minutes. In control experiments, dogs without prior exposure to endotoxin received L-NMA alone. To simulate the hypotension observed in dogs receiving endotoxin, one group of dogs received a continuous i.v. infusion of nitroglycerin (2 mg/ml) at a rate adjusted to maintain the SAP at 60-70 mm Hg. Nitroglycerin-treated dogs then received L-NMA (20 mg/kg) and 20 minutes later L-arginine was administered […].
In an additional series of experiments, blood pressure was reduced to 65 mm Hg by continuous i.v. infusion of nitroglycerin, a hypotensive agent that forms NO by an L-arginine and NO synthetase-independent mechanism.

[8] = tested on: isolated guinea pig heart; experiment: Histamine-induced nitrite release and coronary flow in isolated perfused guinea pig heart; details: histamine-elicited
Method: Histamine was administered as a rapid bolus injection into the aorta and net nitrite release during the subsequent 2.5 minutes was determined.

[9] = tested on: murine brain endothelial cells (MBEC); experiment: Nitrite production by MBEC exposed to cytokines / immunomodulators (Griess assay); assay type: cell-based; details: IFN 100 U/ml, TNF 500 U/ml, IL-1 10 U/ml, endotoxin 1 μg/ml; 48 hours
[10] = murine endothelial cells, Gamma-Interferon (100 U/ml) and TNF (500 U/ml), in vitro

N=C(NN)NCCC[C@H](N)C(=O)O [Aminoarginine, L-N^G -aminoarginine]
IC50 [1]: 0.11 mM | potency ranking as inhibitor of nitric oxide production [1]: most potent inhibitor of nitric oxide production measured thusfar | potency ranking as inhibitor of nitric oxide production ([1]; listed as N^G -aminoarginine): most potent derivative tested | effectiveness in reversing TNF hypotension vs NMMA [2]: more effective than NMMA | activity ranking in inhibition of ACh-induced relaxation ([3]; compounds tested thus far): greatest activity | inhibition of EDRF/NO synthesis [3]: served as inhibitors of EDRF/NO synthesis | effect on cytolytic effect of TNF towards tumor cells (L929 cells): did not alter the cytolytic effect of TNF | survival (lethal ET shock animal; ET 2 mg/kg, multiple NAA doses, then autopsied): 24 h | pathological changes at autopsy (lethal ET shock animal; liver, lungs, heart, brain, bowel or kidney): No pathological changes | reversal of IL-1 mediated hypotension [4]: reverse systemic hypotension

CNC(=N)NCCC[C@@H](N)C(=O)O [D-NMA, reference compound]
inhibition of EDRF/NO synthesis [3]: not an inhibitor of EDRF/NO synthesis

CCNC(=N)NCCC[C@H](N)C(=O)O [L-N^G -ethylarginine (L-NEA), L-N^G -ethylarginine]
effect on diastolic BP / pressor effect (words) (anesthetized guinea pig): sustained pressor effect | mode of inhibition ([5]; Lineweaver-Burke): competitive inhibitor | fold less active than NMMA ([5]; compared with NMMA, FIG. 22): approximately 10 -fold

CN=C(NC)NCCC[C@H](N)C(=O)O [Me,Me'--]
inhibition of ACh-induced vasorelaxation (rabbit aortic rings): not a good inhibitor

CN(C)C(=N)NCCC[C@H](N)C(=O)O [Me,Me--]
inhibition of EDRF/NO synthesis [3]: served as inhibitors of EDRF/NO synthesis | inhibition of ACh-induced vasorelaxation (rabbit aortic rings): active inhibitor | potency for inhibition of A23187-stimulated nitrite release [6]: approximately equipotent to L-N^G -methylarginine

COC(=O)[C@H](N)CCCNC(=N)N[N+](=O)[O-] [Nitro-D-Arginine methyl ester]
IC50 [1]: > 4.5 mM

N=C(NCCC[C@@H](N)C(=O)O)N[N+](=O)[O-] [Nitro-D-Arginine]
IC50 [1, 10]: > 4.5 mM

N=C(NCCC[C@H](N)C(=O)OCc1ccccc1)N[N+](=O)[O-] [Nitro-L-Arginine benzyl ester]
IC50 [1, 10]: > 1.2 mM

COC(=O)[C@@H](N)CCCNC(=N)N[N+](=O)[O-] [Nitro-L-Arginine methyl ester]
IC50 [1]: 1.83 mM

N=C(NCCC[C@H](N)C(=O)O)N[N+](=O)[O-] [Nitro-L-Arginine, N^G -nitroarginine]
IC50 [1, 10]: 2.11 mM | inhibition of EDRF/NO synthesis [3]: served as inhibitors of EDRF/NO synthesis

O=[N+]([O-])OCC(CO[N+](=O)[O-])O[N+](=O)[O-] [Nitroglycerin]
Cardiac Output [7]: 2.72 ± 0.27 L/min | Heart Rate [7]: 137.3 ± 5.0 beats/min | Systemic Arterial Pressure [7]: 64.7 ± 2.7 mmHg | Systemic Vascular Resistance [7]: 1924 ± 132 dynes-sec/cm^5

NCCc1c[nH]cn1 [histamine, reference compound]
effect on coronary flow (vasodilation) [8]: dose-dependent increase in coronary flow

CC(=O)N[C@H]1C(O)O[C@H](CO)[C@@H](O)[C@@H]1O[C@H](C)C(=O)N[C@@H](C)C(=O)N[C@H](CCC(=O)O)C(N)=O (stereo partly shown) [muramyl dipeptide (MDP), muramyl dipeptide, reference compound]
effect on nitrite production by MBEC [9]: Neither muramyl dipeptide (MDP) or Il-2 alone, or in combination with IFN effected nitrite production

B1: IFN: recombinant murine gamma-interferon (protein, UniProt P01580 23-155, looked up)
Interferon gamma: HGTVIESLESLNNYFNSSGIDVEEKSLFLDIWRNWQKDGDMKILQSQIISFYLRLFEVLKDNQAISNNISVIESHLITTFFSNSKAKKDAFMSIAKFEVNNPQVQRQAFNELIRVVHQLLPESSLRKRKRSRC
effect on nitrite production by MBEC [9]: no effect

From patent US5770623A, “Argine antagonists for inhibition of systemic hypotension associated with nitric oxide production or endothelial derived relaxing factor” (Board of Regents, The University of Texas System, priority 1995, dated 1998)
